One assay relates to Propionibacterium acnes. Description: Antibacterial ability against Propionibacterium acnes (MIC on BHI solid flat medium). It is filed as cell-based. Conditions: P. acnes, three days. The source says: To measure the antibacterial ability of cryptotanshinone against Propionibacterium acnes (P. acnes hereinafter), P. acnes kept in a cold storage in original state was cultivated on a BHI (Brain Heart Infusion) solid flat medium three days before the beginning of experiment. On the day of experiment, the P. acnes previously cultivated was inoculated into BHI solid flat medium containing the predetermined concentration of cryptotanshinone. Three days later after that, the minimum inhibition concentration (MIC) is obtained by measuring the number of P. acnes. The experiment was conducted in the same manner as experimental example 5, except for using benzoyl peroxide instead of cryptotanshinone.

Another assay has as its system ears of mice. Kind of assay: Anti-inflammation effect, arachidonic acid-induced ear edema. Type of assay: in vivo. The settings on record: for Thickness of ear After applying agent / Thickness of ear Before applying agent: agent 0.3% in ethanol once a day for four days, average of 7 mice; for Thickness of ear After applying agent: 2 mg/ear arachidonic acid, one hour after; for Restraint rate: agent 0.3% in ethanol, (A − B)/A × 100 against comparative group. The protocol: When inflammation is generated due to P. acnes, become more serious. Accordingly, the effect of alleviating the inflammation due to acne is verified by assessing the anti-inflammatory effect of cryptotanshinone. The experiment is conducted by a method using arachidonic acid (A. Crummey, G. P. Harper, E. A. Boyle and F. R. Mangan. Inhibition of arachidonic acid-induced ear oedema as a model for assessing topical anti-inflammatory compound. Agents and Actions 1987; 20:69-76).
After washing both ears of mice with ethanol before applying the agent, 201 o f cryptotanshinone having a concentration of 0.3% is applied to the ears of mice belonging to an agent application group once a day for four days, while 201 o f ethanol is applied to mice in a comparative group. One hour after the last application, ethanol is applied to the left ears of mice and 2 mg/ear of arachidonic acid is applied to the right ears of mice. One hour after that, the degree of ear edema is repeatedly measured by micrometer three times for each ear. The left ears of mice in the agent application group are used as a comparative group for measuring the degree of inflammation being induced by the agent.
The anti-inflammatory effect is assessed by the degree that the edema in the agent application group is restrained by cryptotanshinone on the basis of the comparative group to which arachidonic acid is applied. The number of mice used for each group is seven and the value is an average of those of 7 mice.
The experiments are conducted in the same manner as experimental example 6, except for respectively using stearyl glycyrrhetinate and indomethacin instead of cryptotanshinone.

In the next assay the test system is 5 α-reductase. Kind of assay: Inhibition of 5 α-reductase (conversion of 3H-testosterone to dihydrotestosterone, HPLC). Type of assay: biochemical. The protocol:
30 l of Phosphate Buffered Saline (PBS/pH 6.6) is mixed with 101 of dithiothreitol, NADPH, and testosterone, into which radioactive isotopes are combined (3H-1, 2, 4, 5, 6, 7-testosterone), 401 of extract liquid of enzyme 5 α-reductase, and 20 l of cryptotanshinone having 0.001% of concentration. Next, the composition mentioned above is left at the normal temperature for 10 minutes so that the materials in the composition react to each other, and then the amount of converted dihydrotestosterone are measured by HPLC and a measuring instrument of radioisotope.
Inhibition rate (%)=[…].
The experiments are conducted in the same manner as experimental example 1, except for changing the concentration of cryptotanshinone as described in Table 1.

Values after ≈ are worked out from the molar mass of the structure shown.

By MIC is commonly meant the smallest concentration in the dilution series that meets the test's criterion for growth inhibition. Lower therefore signals a more susceptible organism. On to `O=C(OOC(=O)c1ccccc1)c1ccccc1` [Benzoyl peroxide, reference compound], for which, in the assay on Propionibacterium acnes (Cutibacterium acnes, 72 h), the MIC lay in the range of 500 to 1000 µg/mL (≈ 2.06 to 4.13 mM).

Take `COc1ccc2c(c1)c(CC(=O)O)c(C)n2C(=O)c1ccc(Cl)cc1` [Indomethacin, indomethacin]: in the assay on ears of mice, the “Thickness of ear After applying agent” value was 391, the “Thickness of ear Before applying agent” value is 273 and the Restraint rate came out at 46.6%.

For `CCCCCCCCCCCCCCCCCCOC(=O)[C@@]1(C)CC[C@]2(C)CC[C@]3(C)C(=CC(=O)[C@@H]4[C@@]5(C)CC[C@H](O)C(C)(C)[C@@H]5CC[C@]43C)[C@@H]2C1` [Stearyl Glycyrrhetinate, stearyl glycyrrhetinate], in the assay with ears of mice, the “Thickness of ear After applying agent” value is reported as 454, the “Thickness of ear Before applying agent” value is reported as 268 and the Restraint rate is 15.8%.

On to Cryptotanshinone, for which the Inhibition rate with 5 α-reductase (concentration of cryptotanshinone 0.001%) is listed as 19.1%; in the assay with 5 α-reductase (concentration of cryptotanshinone 0.01%), 36.0%; in the assay with 5 α-reductase (concentration of cryptotanshinone 0.1%) it was 45.9%; in the assay with 5 α-reductase (concentration of cryptotanshinone 1.0%), 100%. The “MIC (mole)” value with Propionibacterium acnes was 100-500 ppm. The “Thickness of ear After applying agent” value with ears of mice amounted to 437. Moreover, the “Thickness of ear Before applying agent” value with ears of mice turned out to be 271. This compound also yielded a Restraint rate with ears of mice of 24.9%.

Values taken from patent US20030031690A1, “Cosmetic composition for preventing and treating acnes containing cryptotanshinone” (priority 2001, published 2003).
